Assays:
[1] = Stability in aqueous media monitored by HPLC-MS; format: physicochemical
Description: To ensure both agents remain stable in aqueous media under various conditions, they were dissolved in PBS, two types of cell culture media (MEM and RPMI-1640), pH 5 H2O, and porcine live esterase (PLE) in PBS and monitored over time by HPLC-MS. […]
Stability of GP1 and GP2 in various aqueous media. Aliquots of GP1 and GP2 were prepared from a stock with known mass checked by ICP-MS. An aliquot of each was dissolved in H2O and analyzed by HPLC-MS using an Atlantis C18 column (4.6 × 250 mm, 5 μm) and the following method: MeCN held at 0% for 3 min followed by a 15 min ramp to 100% MeCN (GP1 retention time: 10.9 min, GP2 retention time: 11.6 min). Aliquots of both were additionally dissolved in PBS, MEM, RPMI-1640, pH 5 H2O, PBS with 10 units/mL porcine liver esterase, 5 mM glutathione, and 5 mM sodium ascorbate, incubated in a shaker at 37 °C, and were analyzed by HPLC-MS at different time points using the same method. At each time point, the area of the peak of GP1 or GP2 was determined by integration and compared to the area of the peaks in […]

[2] = Reduction by 5 mM GSH / 5 mM ascorbate at 37 °C (HPLC-MS); format: physicochemical
Description: Under reducing conditions both agents rapidly converted to a monomeric Gd(III) complex and a Pt(II) drug. Each agent was incubated with 5 mM GSH and 5 mM ascorbate at 37 °C to mimic intracellular conditions. […] This is not surprising, as ascorbate is a weaker reducing agent. […]
solution. These capillaries were imaged using a Bruker PharmaScan 7 T MR imaging spectrometer (Bruker BioSpin, Billerica, MA, USA). T1 relaxation times were measured using a rapid-acquisition rapid-echo (RARE-VTR) T1-map pulse sequence with static TE (10 ms) and […]
Stability of GP1 and GP2 in various aqueous media. […] An aliquot of each was dissolved in H2O and analyzed by HPLC-MS using an Atlantis C18 column (4.6 × 250 mm, 5 μm) and the following method: MeCN held at 0% for 3 min followed by a 15 min ramp to 100% MeCN (GP1 retention time: 10.9 min, GP2 retention time: 11.6 min). Aliquots of both were additionally dissolved in PBS, MEM, RPMI-1640, pH 5 H2O, PBS with 10 units/mL porcine liver esterase, 5 mM glutathione, and 5 mM sodium ascorbate, incubated in a shaker at 37 °C, and were analyzed by HPLC-MS at different time points using the same method. At each time point, the area of the peak of GP1 or GP2 was determined by integration and compared to the area of the peaks in H2O. […]

[3] = system: HeLa cells; test: MR imaging of cell pellets at 7 T; format: cell-based; conditions: 6 h incubation, cisplatin 15 μM, 1 100 μM, GP1 60 μM, GP2 250 μM

[NH2][Pt]([NH2])([OH])([Cl])([Cl])[O]C(=O)CCCCCN1CCN2CCN3CCN(CC1)CC(=O)[O][Gd]([O]C(=O)C2)[O]C(=O)C3 [GP1]
Agent intact in MEM ([1]; MEM, 37 °C, at 48 hours): ≥ 92% | Stability in PBS ([1]; PBS, 37 °C, over 48 hours): completely stable | Agent reduced to Pt(II) in RPMI-1640 ([1]; RPMI-1640 (0.003 mM GSH), 37 °C, within 48 hours): 33% | Agent intact in RPMI-1640 ([1]; RPMI-1640, 37 °C, at 6 hours): ≥ 96% | Stability in pH 5 H2O ([1]; pH 5 H2O, 37 °C, over 48 hours): completely stable | Reduction by GSH ([2]; 5 mM GSH, in less than an hour): ≥ 94% | Reduction by ascorbate ([2]; 5 mM ascorbate, compared to GSH): reduced by ascorbate, albeit it at a much slower rate | T1 of cell pellet [3]: 1557 ± 17 ms | Δ R1 (increase in R1 vs untreated control) [3]: 48%

From PMC8157322, “Gd(III)–Pt(IV) theranostic contrast agents for tandem MR imaging and chemotherapy” (Chemical Science, 2020)
